Where “and” joins values, the source holds several entries; their conditions need not be identical. Equal entries are not always repeated. Toxic doses and inconclusive results are not listed. Cut-off read from the data, not from the text of the source: active = T/C of 150% or more; inactive = T/C below 125%.
Tested on: L1210 leukemia ip in BDF1 mice, survival T/C
Assay: NCI In Vivo Anticancer Drug Screen. Data for tumor model L1210 Leukemia (intraperitoneal) in B6D2F1 (BDF1) mice
Conditions: endpoint: mean survival time, higher = longer survival
How it was run: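 Antitumor effect is assessed in tumor-bearing animals. Survival in the compound arm is compared with a vehicle-dosed control arm and expressed as their quotient.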

[1] = dose: 100.0 mg/kg/injection, schedule: Q01DX001 (ip), vehicle: saline
[2] = dose: 200.0 mg/kg/injection, schedule: Q01DX001 (ip), vehicle: saline
[3] = dose: 50.0 mg/kg/injection, schedule: Q01DX009 (ip), vehicle: Klucel (hydroxypropylcellulose) (HPC)
[4] = dose: 100.0 mg/kg/injection, schedule: Q01DX009 (ip), vehicle: Klucel (hydroxypropylcellulose) (HPC)
[5] = dose: 100.0 mg/kg/injection, schedule: Q04DX003 (ip), vehicle: Klucel (hydroxypropylcellulose) (HPC)
[6] = dose: 200.0 mg/kg/injection, schedule: Q01DX009 (ip), vehicle: Klucel (hydroxypropylcellulose) (HPC)
[7] = dose: 200.0 mg/kg/injection, schedule: Q04DX003 (ip), vehicle: Klucel (hydroxypropylcellulose) (HPC)
[8] = dose: 400.0 mg/kg/injection, schedule: Q04DX003 (ip), vehicle: Klucel (hydroxypropylcellulose) (HPC)
[9] = dose: 400.0 mg/kg/injection, schedule: Q01DX001 (ip), vehicle: saline
[10] = dose: 100.0 mg/kg/injection, schedule: Q01DX001 (ip), vehicle: carboxymethylcellulose (CMC)

Measured: T/C

CC12CCC3c4ccc(OC(=O)Cc5ccc(N(CCCl)CCCl)cc5)cc4CCC3C1CCC2=O (stereo not given)
inactive: dose: 100.0 mg/kg/injection, schedule: Q01DX001 (sc), vehicle: steriod suspending solution 97 % of control | dose: 200.0 mg/kg/injection, schedule: Q01DX001 (sc), vehicle: steriod suspending solution 103 % of control | dose: 400.0 mg/kg/injection, schedule: Q01DX001 (sc), vehicle: steriod suspending solution 103 % of control

NCc1cccc2ccccc12
inactive: dose: 62.5 mg/kg/injection, schedule: Q01DX001 (ip), vehicle: saline 109 % of control | [1] 112 % of control | dose: 125.0 mg/kg/injection, schedule: Q01DX001 (ip), vehicle: saline 104 % of control | [2] 96 % of control

O=NN(c1ccccc1)c1ccc(N(N=O)c2ccccc2)cc1
inactive: [3] 97 % of control | [4] 96 % of control | [5] 93 % of control | [6] 100 % of control | [7] 100 % of control | dose: 400.0 mg/kg/injection, schedule: Q01DX009 (ip), vehicle: Klucel (hydroxypropylcellulose) (HPC) 96 % of control | [8] 96 % of control

CC1(C)OC2C(CO)OC(n3cnc4c(N)ncnc43)C2O1 (stereo not given)
inactive: dose: 25.0 mg/kg/injection, schedule: Q01DX009 (ip), vehicle: Klucel (hydroxypropylcellulose) (HPC) 103 % of control | [3] 98 % of control | [4] 100 % of control | [5] 103 % of control | [7] 103 % of control

Nc1ccc([N+](=O)[O-])cc1C(O)(C(F)(F)F)C(F)(F)F (tested in a mixture with another compound)
inactive: dose: 100.0 mg/kg/injection, schedule: Q01DX009 (ip), vehicle: saline with Tween-80 101 % of control | dose: 100.0 mg/kg/injection, schedule: Q04DX003 (ip), vehicle: saline with Tween-80 101 % of control | dose: 200.0 mg/kg/injection, schedule: Q01DX009 (ip), vehicle: saline with Tween-80 94 % of control | dose: 200.0 mg/kg/injection, schedule: Q04DX003 (ip), vehicle: saline with Tween-80 100 % of control | dose: 400.0 mg/kg/injection, schedule: Q04DX003 (ip), vehicle: saline with Tween-80 97 % of control

CC(C)=CCC/C(C)=C/Cn1cnc2c(ncn2C2OC(CO)C(O)C2O)c1=O (stereo not given)
inactive: dose: 12.5 mg/kg/injection, schedule: Q01DX009 (ip), vehicle: saline 100 % of control | dose: 25.0 mg/kg/injection, schedule: Q01DX005 (ip), vehicle: saline 97 % of control | dose: 25.0 mg/kg/injection, schedule: Q01DX009 (ip), vehicle: saline 100 % of control | dose: 50.0 mg/kg/injection, schedule: Q01DX005 (ip), vehicle: saline 108 % of control | dose: 50.0 mg/kg/injection, schedule: Q01DX009 (ip), vehicle: saline 92 % of control | dose: 100.0 mg/kg/injection, schedule: Q01DX005 (ip), vehicle: saline 96 % of control

O=C(CCCC(=O)N/N=C/c1ccccc1[N+](=O)[O-])N/N=C\c1ccccc1[N+](=O)[O-]
inactive: dose: 50.0 mg/kg/injection, schedule: Q01DX001 (ip), vehicle: saline 112 % of control | [1] 106 % of control | [2] 101 % of control | [9] 101 % of control

COC(=O)c1ccc(OC(=O)Nc2ccc(F)c([N+](=O)[O-])c2)cc1
inactive: [4] 101 % of control | [6] 104 % of control

Cc1cc(-c2ccccc2)c2ccc3c(-c4ccccc4)cc(C)nc3c2n1
inactive: dose: 0.5 mg/kg/injection, schedule: Q01DX001 (ip), vehicle: carboxymethylcellulose (CMC) 105 % of control | dose: 1.0 mg/kg/injection, schedule: Q01DX001 (ip), vehicle: carboxymethylcellulose (CMC) 112 % of control | dose: 2.0 mg/kg/injection, schedule: Q01DX001 (ip), vehicle: carboxymethylcellulose (CMC) 95 % of control | dose: 4.0 mg/kg/injection, schedule: Q01DX001 (ip), vehicle: carboxymethylcellulose (CMC) 97 % of control | dose: 8.0 mg/kg/injection, schedule: Q01DX001 (ip), vehicle: carboxymethylcellulose (CMC) 100 % of control | dose: 10.0 mg/kg/injection, schedule: Q01DX001 (ip), vehicle: carboxymethylcellulose (CMC) 100 % of control | dose: 20.0 mg/kg/injection, schedule: Q01DX001 (ip), vehicle: carboxymethylcellulose (CMC) 95 % of control | dose: 80.0 mg/kg/injection, schedule: Q01DX001 (ip), vehicle: carboxymethylcellulose (CMC) 95 % of control | [10] 97 % of control

ClCc1ccc2ccc3cccc4ccc1c2c34
inactive: dose: 5.0 mg/kg/injection, schedule: Q01DX009 (ip), vehicle: carboxymethylcellulose (CMC) 109 % of control | dose: 10.0 mg/kg/injection, schedule: Q01DX009 (ip), vehicle: carboxymethylcellulose (CMC) 110 % of control | dose: 12.5 mg/kg/injection, schedule: Q01DX009 (ip), vehicle: carboxymethylcellulose (CMC) 109 % of control | dose: 20.0 mg/kg/injection, schedule: Q01DX009 (ip), vehicle: carboxymethylcellulose (CMC) 121 % of control | dose: 25.0 mg/kg/injection, schedule: Q01DX009 (ip), vehicle: carboxymethylcellulose (CMC) 97 % of control

O=[N+]([O-])c1ccc(Cl)cc1/C=N/N1CCN(/N=C/c2cc(Cl)ccc2[N+](=O)[O-])CC1
inactive: [1] 93 % of control | [2] 93 % of control | [9] 93 % of control

c1ccc(CC2(Cc3ccccc3)SCCS2)cc1
inactive: [5] 102 % of control | [7] 91 % of control | [8] 89 % of control

O=C(Nc1cccc(O)c1)Nc1cccc(C(F)(F)F)c1
inactive: [10] 92 % of control and 101 % of control | dose: 100.0 mg/kg/injection, schedule: Q01DX009 (ip), vehicle: carboxymethylcellulose (CMC) 94 % of control and 96 % of control | dose: 100.0 mg/kg/injection, schedule: Q04DX002 (ip), vehicle: carboxymethylcellulose (CMC) 92 % of control and 93 % of control | dose: 100.0 mg/kg/injection, schedule: Q04DX003 (ip), vehicle: carboxymethylcellulose (CMC) 95 % of control and 100 % of control | dose: 200.0 mg/kg/injection, schedule: Q01DX001 (ip), vehicle: carboxymethylcellulose (CMC) 96 % of control and 87 % of control | dose: 200.0 mg/kg/injection, schedule: Q01DX009 (ip), vehicle: carboxymethylcellulose (CMC) 94 % of control and 100 % of control | dose: 200.0 mg/kg/injection, schedule: Q04DX002 (ip), vehicle: carboxymethylcellulose (CMC) 92 % of control and 86 % of control | dose: 200.0 mg/kg/injection, schedule: Q04DX003 (ip), vehicle: carboxymethylcellulose (CMC) 92 % of control and 91 % of control | dose: 400.0 mg/kg/injection, schedule: Q01DX001 (ip), vehicle: carboxymethylcellulose (CMC) 92 % of control and 93 % of control | dose: 400.0 mg/kg/injection, schedule: Q01DX009 (ip), vehicle: carboxymethylcellulose (CMC) 100 % of control and 91 % of control | dose: 400.0 mg/kg/injection, schedule: Q04DX002 (ip), vehicle: carboxymethylcellulose (CMC) 95 % of control and 100 % of control | dose: 400.0 mg/kg/injection, schedule: Q04DX003 (ip), vehicle: carboxymethylcellulose (CMC) 87 % of control and 91 % of control

O=C(O)c1cc(I)cc(Br)c1I
inactive: dose: 100.0 mg/kg/injection, schedule: Q04DX002 (ip), vehicle: Klucel (hydroxypropylcellulose) (HPC) 102 % of control | dose: 200.0 mg/kg/injection, schedule: Q04DX002 (ip), vehicle: Klucel (hydroxypropylcellulose) (HPC) 110 % of control | dose: 400.0 mg/kg/injection, schedule: Q04DX002 (ip), vehicle: Klucel (hydroxypropylcellulose) (HPC) 105 % of control

NC(N)=N/N=C1\CCCC\C1=N/N=C(N)N
inactive: dose: 15.0 mg/kg/injection, schedule: Q01DX Z (ip), vehicle: carboxymethylcellulose (CMC) 97 % of control | dose: 30.0 mg/kg/injection, schedule: Q01DX Z (ip), vehicle: carboxymethylcellulose (CMC) 95 % of control | dose: 60.0 mg/kg/injection, schedule: Q01DX Z (ip), vehicle: carboxymethylcellulose (CMC) 91 % of control | dose: 60.0 mg/kg/injection, schedule: Q01DX Z (oral), vehicle: carboxymethylcellulose (CMC) 96 % of control | dose: 120.0 mg/kg/injection, schedule: Q01DX Z (ip), vehicle: carboxymethylcellulose (CMC) 102 % of control | dose: 120.0 mg/kg/injection, schedule: Q01DX Z (oral), vehicle: carboxymethylcellulose (CMC) 93 % of control | dose: 240.0 mg/kg/injection, schedule: Q01DX Z (oral), vehicle: carboxymethylcellulose (CMC) 88 % of control | dose: 480.0 mg/kg/injection, schedule: Q01DX Z (oral), vehicle: carboxymethylcellulose (CMC) 98 % of control

CC(C)CC(CC(C)C)NCCO
inactive: dose: 75.0 mg/kg/injection, schedule: Q01DX001 (ip), vehicle: acid diluted with saline 103 % of control

From PubChem BioAssay AID248 (DTP/NCI, 2004)
